PubChem BioAssay AID1919007 (Molecular Pharmacology Branch, DTP, NCI, 2023)

Tested on: A498 complex spheroids with HUVEC/MSC, growth
Test: Anticancer human tumor A498 cell line growth inhibition [AhR];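 further: seven day exposure starting three days after spheroid seeding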;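 on viability, T/C: luminescence signal used as a surrogate for viable cells; luminescence viability scaled so 100% equals DMSO vehicle wells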
Details: for IC50: curve of first compound; for viability, T/C: stronger effect = lower value
Outline: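 Spheroids combined tumor cells with HUVEC endothelial cells and human MSCs as stroma. AhR antagonists were paired with standard or investigational drugs, each dosed in half-log steps down from near clinical Cmax, or from 10 microM where Cmax was unknown.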

[1] = second compound 0.1 µM, first compound 0.00316 µM
[2] = second compound 0.1 µM, first compound 0.01 µM
[3] = second compound 0.1 µM, first compound 0.0316 µM
[4] = second compound 0.1 µM, first compound 0.1 µM
[5] = second compound 0.1 µM, first compound 0.316 µM
[6] = second compound 0.1 µM, first compound 1 µM
[7] = second compound 0.316 µM, first compound 0.00316 µM
[8] = second compound 0.316 µM, first compound 0.01 µM
[9] = second compound 0.316 µM, first compound 0.0316 µM
[10] = second compound 0.316 µM, first compound 0.1 µM
[11] = second compound 0.316 µM, first compound 0.316 µM
[12] = second compound 0.316 µM, first compound 1 µM
[13] = second compound 1 µM, first compound 0.00316 µM
[14] = second compound 1 µM, first compound 0.01 µM
[15] = second compound 1 µM, first compound 0.0316 µM
[16] = second compound 1 µM, first compound 0.1 µM
[17] = second compound 1 µM, first compound 0.316 µM
[18] = second compound 1 µM, first compound 1 µM
[19] = second compound 3.16 µM, first compound 0.00316 µM
[20] = second compound 3.16 µM, first compound 0.01 µM
[21] = second compound 3.16 µM, first compound 0.0316 µM
[22] = second compound 3.16 µM, first compound 0.1 µM
[23] = second compound 3.16 µM, first compound 0.316 µM
[24] = second compound 3.16 µM, first compound 1 µM
[25] = second compound 10 µM, first compound 0.00316 µM
[26] = second compound 10 µM, first compound 0.01 µM
[27] = second compound 10 µM, first compound 0.0316 µM
[28] = second compound 10 µM, first compound 0.1 µM
[29] = second compound 10 µM, first compound 0.316 µM
[30] = second compound 10 µM, first compound 1 µM
[31] = second compound 0.1 µM, first compound 3.16 µM
[32] = second compound 0.1 µM, first compound 10 µM
[33] = second compound 0.316 µM, first compound 3.16 µM
[34] = second compound 0.316 µM, first compound 10 µM
[35] = second compound 1 µM, first compound 3.16 µM
[36] = second compound 1 µM, first compound 10 µM
[37] = second compound 3.16 µM, first compound 3.16 µM
[38] = second compound 3.16 µM, first compound 10 µM
[39] = second compound 10 µM, first compound 3.16 µM
[40] = second compound 10 µM, first compound 10 µM

SMILES	IC50 (second compound 0.1 µM)	IC50 (second compound 0.316 µM)	IC50 (second compound 1 µM)	IC50 (second compound 3.16 µM)	IC50 (second compound 10 µM)	viability, T/C [3]	viability, T/C [4]	viability, T/C [5]	viability, T/C [6]	viability, T/C [9]	viability, T/C [10]	viability, T/C [11]	viability, T/C [12]	viability, T/C [15]	viability, T/C [16]	viability, T/C [17]	viability, T/C [21]	viability, T/C [22]	viability, T/C [27]	viability, T/C [28]	further results
CC1COCCN1c1cc(-c2ccnn2C)c2ccnc(-c3ccn[nH]3)c2n1 (stereo not given) + Cc1cncc(-c2nc(NCCc3c[nH]c4ccccc34)c3ncn(C(C)C)c3n2)c1	111 nM	129 nM	105 nM	24.4 nM	< 3.16 nM	90.6%	52.5%	24.5%	19.4%	89%	57.4%	26%	20.5%	81.5%	52.2%	23.5%	51.4%	41.2%	6.04%	3.64%	viability, T/C [1]: 94.3%; viability, T/C [2]: 102%; viability, T/C [7]: 98.5%; viability, T/C [8]: 103%; viability, T/C [13]: 91.3%; viability, T/C [14]: 96.8%; viability, T/C [18]: 21.4%; viability, T/C [19]: 49.4%; viability, T/C [20]: 50.1%; viability, T/C [23]: 22.8%; viability, T/C [24]: 19.5%; viability, T/C [25]: 3.71%; viability, T/C [26]: 4.4%; viability, T/C [29]: 4.9%; viability, T/C [30]: 10.9%
CC1(C)CCC(CN2CCN(c3ccc(C(=O)NS(=O)(=O)c4ccc(NCC5CCOCC5)c([N+](=O)[O-])c4)c(Oc4cnc5[nH]ccc5c4)c3)CC2)=C(c2ccc(Cl)cc2)C1 + Cc1cncc(-c2nc(NCCc3c[nH]c4ccccc34)c3ncn(C(C)C)c3n2)c1	5370 nM	5320 nM	5030 nM	< 31.6 nM	< 31.6 nM	88.5%	90%	85.3%	78.6%	89.2%	92.2%	95.1%	78.3%	84.7%	90.3%	87%	43.6%	43.4%	2.24%	2.27%	viability, T/C [31]: 72.3%; viability, T/C [32]: 26%; viability, T/C [33]: 71%; viability, T/C [34]: 26.6%; viability, T/C [18]: 73.5%; viability, T/C [35]: 66.9%; viability, T/C [36]: 28.3%; viability, T/C [23]: 48.5%; viability, T/C [24]: 40.9%; viability, T/C [37]: 39.6%; viability, T/C [38]: 24.5%; viability, T/C [29]: 3.12%; viability, T/C [30]: 4.57%; viability, T/C [39]: 3.12%; viability, T/C [40]: 5.62%
O=C(C=Cc1cccc(S(=O)(=O)Nc2ccccc2)c1)NO + Cc1cncc(-c2nc(NCCc3c[nH]c4ccccc34)c3ncn(C(C)C)c3n2)c1	1260 nM	1380 nM	1120 nM	119 nM	< 31.6 nM	92.1%	90.3%	63.2%	54.4%	94.5%	88.1%	73.5%	53.8%	83.9%	85%	64.7%	48.5%	51.9%	4.64%	4.39%	viability, T/C [31]: 37.4%; viability, T/C [32]: 15.1%; viability, T/C [33]: 36.7%; viability, T/C [34]: 13.8%; viability, T/C [18]: 52.4%; viability, T/C [35]: 33.5%; viability, T/C [36]: 14.9%; viability, T/C [23]: 50%; viability, T/C [24]: 42.5%; viability, T/C [37]: 31.2%; viability, T/C [38]: 11.8%; viability, T/C [29]: 4.66%; viability, T/C [30]: 3.81%; viability, T/C [39]: 2.39%; viability, T/C [40]: 2.67%
CC[C@@]1(O)C(=O)OCc2c1cc1n(c2=O)Cc2cc3c(CN(C)C)c(O)ccc3nc2-1 + Cc1cncc(-c2nc(NCCc3c[nH]c4ccccc34)c3ncn(C(C)C)c3n2)c1	> 100 nM	> 100 nM	> 100 nM	> 100 nM	< 0.316 nM	72.9%	69.8%	–	–	83.3%	72.9%	–	–	77%	66.6%	–	56.5%	53.1%	6.79%	8.73%	viability, T/C (second compound 0.1 µM, first compound 0.000316 µM): 87.4%; viability, T/C (second compound 0.1 µM, first compound 0.001 µM): 92.5%; viability, T/C [1]: 90.1%; viability, T/C [2]: 84.7%; viability, T/C (second compound 0.316 µM, first compound 0.000316 µM): 88.7%; viability, T/C (second compound 0.316 µM, first compound 0.001 µM): 92.2%; viability, T/C [7]: 91.1%; viability, T/C [8]: 83.1%; viability, T/C (second compound 1 µM, first compound 0.000316 µM): 89.2%; viability, T/C (second compound 1 µM, first compound 0.001 µM): 92.5%; viability, T/C [13]: 98.3%; viability, T/C [14]: 76.5%; viability, T/C (second compound 3.16 µM, first compound 0.000316 µM): 61.4%; viability, T/C (second compound 3.16 µM, first compound 0.001 µM): 72.9%; viability, T/C [19]: 65.8%; viability, T/C [20]: 60.5%; viability, T/C (second compound 10 µM, first compound 0.000316 µM): 4.54%; viability, T/C (second compound 10 µM, first compound 0.001 µM): 6%; viability, T/C [25]: 7.18%; viability, T/C [26]: 5.32%
COc1cc(C2c3cc4c(cc3C(OC3OC5COC(C)OC5C(O)C3O)C3COC(=O)C23)OCO4)cc(OC)c1O (stereo not given) + CC(CO)NC(=O)c1cc(-c2ccc(Cl)cc2)nn(-c2cnn(C)c2)c1=O	2970 nM	2080 nM	1560 nM	1080 nM	400 nM	74.1%	81.2%	69.4%	57.7%	74.2%	73.1%	68%	52.9%	66.7%	77%	71.3%	64.4%	66.7%	49.3%	57.7%	viability, T/C [31]: 52.5%; viability, T/C [32]: 42.2%; viability, T/C [33]: 49.8%; viability, T/C [34]: 40.1%; viability, T/C [18]: 53.3%; viability, T/C [35]: 47.3%; viability, T/C [36]: 40.3%; viability, T/C [23]: 64.5%; viability, T/C [24]: 50.2%; viability, T/C [37]: 41.9%; viability, T/C [38]: 38.2%; viability, T/C [29]: 53.3%; viability, T/C [30]: 37.9%; viability, T/C [39]: 37.3%; viability, T/C [40]: 30.7%
Nc1ccn(C2OC(CO)C(O)C2(F)F)c(=O)n1 (stereo not given) + Cc1cncc(-c2nc(NCCc3c[nH]c4ccccc34)c3ncn(C(C)C)c3n2)c1	< 31.6 nM	< 31.6 nM	< 31.6 nM	< 31.6 nM	< 31.6 nM	26.9%	33.5%	41.7%	41.2%	29%	32%	42.7%	43.7%	32.7%	26.5%	39.7%	45.1%	27.8%	4.54%	4.79%	viability, T/C [31]: 36.5%; viability, T/C [32]: 39.1%; viability, T/C [33]: 41.9%; viability, T/C [34]: 39.9%; viability, T/C [18]: 42.2%; viability, T/C [35]: 39.5%; viability, T/C [36]: 34%; viability, T/C [23]: 28.7%; viability, T/C [24]: 30.5%; viability, T/C [37]: 28.8%; viability, T/C [38]: 33%; viability, T/C [29]: 5.17%; viability, T/C [30]: 3.59%; viability, T/C [39]: 3.85%; viability, T/C [40]: 5.49%
